Here are results for twelve molecules from PubChem BioAssay (NCI).

Some test systems named below: HOP-92 NSCLC; SF-539 CNS; OVCAR-8 ovarian; LXFL 529 NSCLC; A498 renal; SW-620 colon; M19-MEL melanoma; MDA-MB-231 breast; HOP-62 NSCLC; MCF7 breast.
Common to all, as to test: NCI anticancer screen, dose series, 48 h

“And” between values parts separate entries of the source, which are not always exact repeats. Identical values can stand only once.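 48-hour exposure; five concentrations; linearly interpolated endpoints. Abbreviation: GI50, concentration required for 50% inhibition of growth. TGI: total growth inhibition.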

As to `CC[C@@]1(O)C(=O)OCc2c1cc1n(c2=O)Cc2cc3cc(O)ccc3nc2-1`, the GI50 in the assay on HOP-92 NSCLC was 0.0239 µM; with A498 renal it was 0.195 µM and 0.0455 µM; in the assay on SW-620 colon, 0.0179 µM and < 0.0154 µM; in the assay with M19-MEL melanoma it was 0.0634 µM; with HOP-62 NSCLC it was below 0.0075 µM. Also, the TGI with HOP-92 NSCLC is 0.107 µM and 0.513 µM; with SF-539 CNS, 0.0495 µM and 0.0166 µM; with OVCAR-8 ovarian, 2.47 µM and 0.477 µM; in the assay on LXFL 529 NSCLC it was 1.91 µM; in the assay with A498 renal, 0.703 µM and 0.453 µM; in the assay with SW-620 colon, 22.9 µM and 3.78 µM. Also, the TGI was 0.589 µM and 1.01 µM in the assay with M19-MEL melanoma; above 100 µM in the assay on MDA-MB-231 breast; 0.0319 µM and 0.153 µM with HOP-62 NSCLC.
Regarding `CCN(CC)CCN1C(=O)c2c(c3c4cccc(Cl)c4n(C4OC(CO)C(OC)C(O)C4O)c3c3[nH]c4c(Cl)cccc4c23)C1=O` (stereo unspecified), the GI50 was 0.000362 µM in the assay with HOP-92 NSCLC; below 0.0001 µM in the assay with OVCAR-8 ovarian; 0.000116 µM with LXFL 529 NSCLC; below 0.0001 µM in the assay with SW-620 colon; 0.000144 µM in the assay with M19-MEL melanoma; 0.000125 µM and < 0.0318 µM and < 0.01 µM in the assay on HOP-62 NSCLC. Moreover, the TGI was 0.199 µM with MCF7 breast and 1.12 µM in the assay on MDA-MB-231 breast.
Take `[pH]1p2[pH]p3p1p3[pH]2.c1cc[c]([Ge]([c]2ccccc2)[c]2ccccc2)cc1.c1cc[c]([Ge]([c]2ccccc2)[c]2ccccc2)cc1.c1cc[c]([Ge]([c]2ccccc2)[c]2ccccc2)cc1`: the GI50 with HOP-92 NSCLC is 12.8 µM; in the assay on SF-539 CNS, 13.9 µM; in the assay on OVCAR-8 ovarian it was 13.5 µM; in the assay with LXFL 529 NSCLC, 11.6 µM; in the assay with A498 renal it was 15.8 µM; in the assay with SW-620 colon, 16.3 µM. For the same molecule, the GI50 was 14.4 µM in the assay on M19-MEL melanoma and 28.7 µM in the assay with HOP-62 NSCLC. Further, the TGI turned out to be 29.8 µM with HOP-92 NSCLC; 31.8 µM in the assay with SF-539 CNS; 35.3 µM in the assay with OVCAR-8 ovarian; 24.3 µM in the assay on LXFL 529 NSCLC; 30 µM with A498 renal; 29.9 µM with SW-620 colon. Besides, the TGI in the assay with M19-MEL melanoma amounted to 28.6 µM; in the assay with HOP-62 NSCLC, 66.1 µM.
In the case of `NC(=S)N/N=C/C(O[C@@H](/C=N/NC(N)=S)CO)n1cnc2c(N)ncnc21` (stereo partly specified), the TGI with HOP-92 NSCLC was above 100 µM; in the assay on SF-539 CNS it was above 100 µM; in the assay on OVCAR-8 ovarian, above 100 µM; with LXFL 529 NSCLC, above 100 µM; with A498 renal, above 100 µM; in the assay on SW-620 colon, above 53.7 µM. The TGI in the assay with M19-MEL melanoma and in the assay on HOP-62 NSCLC was above 100 µM each time.
For `CCOC(=O)C1(C)C2=CC=C(O2)C(C)(C)C2=CC=C(O2)C(C)(C)C2=CC=C(O2)C(C)(C)C2=CC=C1O2`, the TGI in the assay with HOP-92 NSCLC, with SF-539 CNS, in the assay on OVCAR-8 ovarian, in the assay with LXFL 529 NSCLC, with A498 renal and in the assay with SW-620 colon was above 100 µM in each case. For the same molecule, the TGI in the assay with M19-MEL melanoma and with HOP-62 NSCLC was above 100 µM throughout.
For `COc1c(CC(C)=O)c2ccccc2n1C(C)=O`, the TGI with HOP-92 NSCLC, in the assay with SF-539 CNS, in the assay with OVCAR-8 ovarian, in the assay with LXFL 529 NSCLC, in the assay on A498 renal and in the assay on SW-620 colon was above 100 µM in each case. The TGI with M19-MEL melanoma and in the assay on HOP-62 NSCLC was above 100 µM throughout.
Turning to `Cc1cc(NS(=O)(=O)c2ccc(NC(=O)c3cccc4c(Nc5ccc(S(=O)(=O)Nc6cc(C)on6)cc5)c5ccc(Cl)cc5nc34)cc2)no1`, the TGI was 80.5 µM in the assay on HOP-92 NSCLC; above 100 µM in the assay on SF-539 CNS; above 100 µM with OVCAR-8 ovarian; above 100 µM in the assay with LXFL 529 NSCLC; above 100 µM in the assay with A498 renal; above 100 µM in the assay with SW-620 colon. Moreover, the TGI in the assay with M19-MEL melanoma and in the assay on HOP-62 NSCLC was above 100 µM throughout.
Take `Nc1nc(N)c2c(Cl)c(CNc3ccc(Cl)c(Cl)c3)ccc2n1`: the TGI was determined as 9.36 µM in the assay with HOP-92 NSCLC; 1.21 µM with SF-539 CNS; 16 µM in the assay on OVCAR-8 ovarian; 12.3 µM in the assay on LXFL 529 NSCLC; 8.68 µM in the assay with A498 renal; 14.6 µM in the assay with SW-620 colon. Moreover, the TGI in the assay on M19-MEL melanoma was determined as 12.5 µM; in the assay on MDA-MB-231 breast, 7.26 µM; in the assay with HOP-62 NSCLC it was 6.59 µM.
Regarding `CCCCN(CCCC)CC(C(=O)Nc1ccc([N+](=O)[O-])cc1[N+](=O)[O-])/C(C)=N\NC(=O)c1ccncc1` (stereo unspecified), the TGI in the assay with HOP-92 NSCLC, with SF-539 CNS, in the assay on OVCAR-8 ovarian, with LXFL 529 NSCLC, in the assay on A498 renal and in the assay with SW-620 colon was above 100 µM each time. Moreover, the TGI in the assay with M19-MEL melanoma and in the assay with HOP-62 NSCLC was above 100 µM in each case.
Consider `Nc1nc2c(ncn2C2OC(CO)C(O)C2O)c(=O)o1` (stereo unspecified), for which the TGI in the assay with HOP-92 NSCLC was above 100 µM; in the assay on SF-539 CNS, above 100 µM; in the assay with OVCAR-8 ovarian it was above 100 µM; in the assay on LXFL 529 NSCLC, above 100 µM; in the assay with A498 renal, above 100 µM; in the assay on SW-620 colon, above 93.6 µM. Further, the TGI with M19-MEL melanoma and in the assay on HOP-62 NSCLC was above 100 µM in each case.
With `c1ccc(-c2sc(-c3ccccc3)c3c2C(c2ccccc2)c2c(-c4ccccc4)sc(-c4ccccc4)c2C3c2ccccc2)cc1` (stereo unspecified), the TGI in the assay on HOP-92 NSCLC, in the assay on SF-539 CNS, with OVCAR-8 ovarian, in the assay on LXFL 529 NSCLC, in the assay with A498 renal and in the assay on SW-620 colon was above 100 µM each time. In addition, the TGI with M19-MEL melanoma and in the assay on HOP-62 NSCLC was above 100 µM in each case.
Take `Oc1ccc(I)c2cccnc12`: the TGI in the assay with HOP-92 NSCLC, in the assay with SF-539 CNS, in the assay on OVCAR-8 ovarian, in the assay on LXFL 529 NSCLC, with A498 renal and in the assay on SW-620 colon was above 100 µM throughout. In addition, the TGI was 76.8 µM in the assay with M19-MEL melanoma and above 100 µM in the assay on HOP-62 NSCLC.
